Read-outs that look alike come from different tables or passages of the source.
Assays:
[1] = tested on: mixed lymphocyte reaction (popliteal lymph node); assay: popliteal lymph node (PLN) test procedure, effect on a mixed lymphocyte reaction; type: in vivo, C3H mice (BALB/c donors); conditions: ratio vs rapamycin; p.o. daily Day 0 to Day 4
Protocol: (§1) Immunosuppressive activity was evaluated in an in vitro standard pharmacological test procedure to measure lymphocyte proliferation (LAF) and in two in vivo standard pharmacological test procedures. The first in vivo procedure was a popliteal lymph node (PLN) test procedure which measured the effect of compounds of this invention on a mixed lymphocyte reaction and the second in vivo procedure evaluated the survival time of a pinch skin graft.
A mixed lymphocyte reaction (MLR) occurs when lymphoid cells from genetically distinct animals are combined in tissue culture. Each stimulates the other to undergo blast transformation which results in increased DNA synthesis that can be quantified by the incorporation of tritiated thymidine. Since stimulating a MLR is a function of disparity at Major Histocompatibility antigens, an in vivo popliteal lymph node (PLN) test procedure closely correlates to host vs. graft disease. Briefly, irradiated spleen cells from BALB/c donors are injected into the right hind foot pad of recipient C3H mice. The drug is given daily, p.o. from Day 0 to Day 4. On Day 3 and Day 4, tritiated thymidine is given i.p., b.i.d. On Day 5, the hind popliteal lymph nodes are removed and dissolved, and radioactivity counted. […] Percent suppression is calculated using the non-drug treated animals as allogenic control. […]

[2] = tested on: cells from the thymus of normal BALB/c mice (lymphocyte proliferation); assay: comitogen-induced thymocyte proliferation procedure (LAF), lymphocyte proliferation; type: cell-based; conditions: for IC50: Mus musculus, Lymphocyte, read-out: LAF IC50; for LAF (ratio): ratio vs rapamycin
Protocol: as §1
Briefly, cells from the thymus of normal BALB/c mice are cultured for 72 hours with PHA and IL-1 and pulsed with tritiated thymidine during the last six hours. […] Cells are harvested and incorporated radioactivity is determined. Inhibition of lymphoproliferation is assessed as percent change in counts per minute from non-drug treated controls. The results are expressed by the following ratio, or as the percent inhibition of lymphoproliferation at 1 μM. [formula]

[3] = tested on: pinch skin graft from male DBA/2 donors transplanted to male BALB/c recipients; assay: survival time of pinch skin graft; type: in vivo; conditions: intraperitoneally; mean ± S.D.
Protocol: as §1
The second in vivo test procedure is designed to determine the survival time of pinch skin graft from male DBA/2 donors transplanted to male BALB/c recipients. The method is adapted from Billingham R. E. and Medawar P. B., J. Exp. Biol. 28:385-402, (1951). Briefly, a pinch skin graft from the donor is grafted on the dorsum of the recipient as a homograft, and an autograft is used as control in the same region. […] Untreated recipients serve as rejection control. The graft is monitored daily and observations are recorded until the graft becomes dry and forms a blackened scab. This is considered as the rejection day. The mean graft survival time (number of days±S.D.) of the drug treatment group is compared with the control group.

T-cell activation = conditions: cited from earlier work
adjuvant arthritis = conditions: in vivo; cited from earlier work
Candida albicans = conditions: both in vitro and in vivo; cited from earlier work
[4] = tested on: organ grafts in histoincompatible rodents; conditions: cited from earlier work
[5] = thymocytes cultured 72 hours with PHA and IL-1, tritiated thymidine last six hours

CO[C@H]1C[C@@H]2CC[C@@H](C)[C@@](O)(O2)C(=O)C(=O)N2CCCC[C@H]2C(=O)O[C@H]([C@H](C)C[C@@H]2CC[C@@H](O)[C@H](OC)C2)CC(=NNC(N)=O)[C@H](C)/C=C(\C)[C@@H](O)[C@@H](OC)C(=O)[C@H](C)C[C@H](C)/C=C/C=C/C=C/1C [Example 4, Rapamycin 27-semicarbazone]
PLN (ratio) [1]: 1.07 | IC50 [2, 5]: 37.2 nM | LAF (ratio) [2, 5]: 0.24

CO[C@H]1C[C@@H]2CC[C@@H](C)[C@@](O)(O2)C(=O)C(=O)N2CCCC[C@H]2C(=O)O[C@H]([C@H](C)C[C@@H]2CC[C@@H](O)[C@H](OC)C2)CC(=NNc2ccccn2)[C@H](C)/C=C(\C)[C@@H](O)[C@@H](OC)C(=O)[C@H](C)C[C@H](C)/C=C/C=C/C=C/1C [Example 3, Rapamycin 27-(2-Pyridinylhydrazone)]
IC50 [2, 5]: 15.9 nM | LAF (ratio) [2, 5]: 0.55

CO[C@H]1C[C@@H]2CC[C@@H](C)[C@@](O)(O2)C(=O)C(=O)N2CCCC[C@H]2C(=O)O[C@H]([C@H](C)C[C@@H]2CC[C@@H](O)[C@H](OC)C2)CC(=O)[C@H](C)/C=C(\C)[C@@H](O)[C@@H](OC)C(=O)[C@H](C)C[C@H](C)/C=C/C=C/C=C/1C [Rapamycin]
Skin Graft survival time (days + SD) [3]: 12.0 ± 1.7 days | inhibition of T-cell activation (T-cell activation): inhibit T-cell activation | effect in adjuvant arthritis model (adjuvant arthritis): effective | PLN (ratio) [1]: 1 | antifungal activity (Candida albicans): antifungal activity, particularly against Candida albicans, both in vitro and in vivo | IC50 [2]: 8.5 to 8.8 nM | survival time of organ grafts [4]: prolong survival time of organ grafts in histoincompatible rodents

CO[C@H]1C[C@@H]2CC[C@@H](C)[C@@](O)(O2)C(=O)C(=O)N2CCCC[C@H]2C(=O)O[C@H]([C@H](C)C[C@@H]2CC[C@@H](O)[C@H](OC)C2)CC(=NNC(C)=O)[C@H](C)/C=C(\C)[C@@H](O)[C@@H](OC)C(=O)[C@H](C)C[C@H](C)/C=C/C=C/C=C/1C [Example 1, Rapamycin 27-(methylcarbonyl hydrazone)]
Skin Graft survival time (days + SD) [3]: 10.50 ± 0.6 days | IC50 [2, 5]: 17.3 nM | LAF (ratio) [2, 5]: 0.50

CO[C@H]1C[C@@H]2CC[C@@H](C)[C@@](O)(O2)C(=O)C(=O)N2CCCC[C@H]2C(=O)O[C@H]([C@H](C)C[C@@H]2CC[C@@H](O)[C@H](OC)C2)CC(=NNC(=O)Nc2ccccc2)[C@H](C)/C=C(\C)[C@@H](O)[C@@H](OC)C(=O)[C@H](C)C[C@H](C)/C=C/C=C/C=C/1C [Example 2, Rapamycin 27-(4-Phenylsemicarbazone)]
Skin Graft survival time (days + SD) [3]: 7.83 ± 1.3 days | IC50 [2, 5]: 19.2 nM | LAF (ratio) [2, 5]: 0.45

Source: patent US5120726A, “Rapamycin hydrazones” (American Home Products Corporation, priority 1991, dated 1992)
